Data from US20210186947A1, “TOMM6-INTERACTING EXTRACTS AND COMPOUNDS FOR USE IN THE TREATMENT AND PROPHYLAXIS OF NERVOUS SYSTEM DISEASES, ATHEROSCLEROSIS, HEPATITIS B INFECTION AND HUMAN PAPILLOMA VIRUS (HPV) INFECTION” (ETH ZURICH, priority 2018, published 2021).

Key:
HPV-induced warts = assay: Phase-1 placebo-controlled study of topical Compound-1 on flat warts; type: in vivo, human; details: once daily topical Compound-1-containing hydrogel (0.2%) for 3 weeks
Protocol: The study analyzed the treatment effect of topical administration of Compound-1 on warts. The study was performed according to the study protocol. Study design: The study was a phase-1, placebo-controlled study of Compound-1. The primary end-point was safety and tolerability. Secondary objectives were treatment effects on wart lesion size. The study included a cohort of 6 voluntary research participants (6 males; age 36-72 years; all Caucasians) with diagnosed flat warts. A total number of 94 lesions were treated with Compound-1. Vehicle-treated warts (n=88) of each participant served as placebo group. Study participants received once daily topical applications of a Compound-1-containing hydrogel (0.2%) or vehicle for 3 weeks. The study participants were under the medical supervision of Dr. Raafat Mahmood Fawzy (Clinical Director, Rabaa El Adaweya Medical Central Hospital, Cairo, Egypt). Clinical laboratory parameters of all research participants were within the normal range before, during the study and after completion of the study (observation period 4 weeks). […] The study protocol was conducted in accordance with the Declaration of Helsinki. All research participants provided written informed consent before participation. Research participants had the possibility to withdraw at any time from the study. But all participants wanted to complete the study.
A total number of 94 lesions were treated with Compound-1. Vehicle-treated warts (n=88) served as placebo. […] The treatment effect of Compound-1 against HPV infection is directly related to its activity as TOMM6 inducer/activator, which is a sufficient cause to inhibit (amyloidogenic) protein aggregation in cells and in vivo. In this context, HPV infection is another disease with causal involvement of an aggregation-prone amyloidogenic protein. Without wishing to be bound by theory, it is believed that Infections with human papillomaviruses (HPV) rely on the highly amyloidogenic protein E1AE4, also known as the HPV E4 protein (McIntosh et al., 82, 8196-8203 (2008)). The HPV E4 protein, which uses the amyloid-fold as does amyloid-beta, is the most abundantly expressed viral transcript/protein in HPV-infected epithelia, and mediates HPV-mediated disruption of cellular integrity, HPV release from infected epithelial cells and virus transmission (McIntosh et al., 82, 8196-8203 (2008); Doorbar, Virology 445, 80-98 (2013)). In HPV-induced warts, the aggregation-prone HPV E4 protein can constitute between 20% and 30% of the total wart protein (Doorbar et al., EMBO J. 5, 355-362 (1986)). The expression of E1AE4 relies on self-aggregation of the HPV E4 protein (Bryan et al., Virology 241, 49-60 (1998)).

[1] = test system: angiotensin II AT2 receptor (AT2R, AGTR2); assay: AT2R protein aggregation assay in HEK cells, immunoblot; type: cell-based, human; details: 10 microM for 72 h
Protocol: Proteins were also extracted from yeast cells and HEK cells expressing the indicated protein (i.e. HBsAg or AGTR2) as described above. Neuronal cell loss and hyperphosphorylated Tau in hippocampi of 15 months-old Tg2576 mice subjected to the CUMS protocol for 3 months was determined with crude homogenates of dissected hippocampi by direct binding assay with neuron-specific [^125I]-labeled anti-NeuN antibody (MAB377, clone A60, EMD Millipore, Merck KGaA, Darmstadt, Germany) and [^125I]-labeled AT8 antibody similarly as described (AbdAlla et al., J. Biol. Chem. 284, 6554-6565 (2009)).
In the second non-Abeta-based protein aggregation assay, different plant extracts were tested in a mammalian cell system, which analyzed the protein aggregation of the angiotensin II AT2 receptor (AT2R, AGTR2) protein in human embryonic kidney (HEK) cells. The system has physiological relevance because this cellular system is capable to reproduce AT2R protein aggregation, which also occurs in brains of AD patients and AD animal models (AbdAlla et al., J. Biol. Chem. 284, 6554-6565 (2009); AbdAlla et al., J. Biol. Chem. 284, 6566-6574 (2009)). The AT2 receptor in human embryonic kidney (HEK) cells forms stable dimers/oligomers under pro-oxidant conditions, which are resistant to urea-containing reducing SDS-PAGE (FIG. 2A, and AbdAlla et al., J. Biol. Chem. 284, 6566-6574 (2009)). […]

[2] = Measurement of serum level in rats by HPLC; type: in vivo, Sprague Dawley rats
Protocol: Serum concentrations of alizarin were determined with serum isolated from the blood of male and female German shepherd dogs (age: 8-9 months) taken at different time points (0.5 h, 1 h, 2 h, 4 h, 6 h, 8 h, 24 h) after oral intake of the indicated doses for 4 weeks. In addition, serum concentrations of alizarin (Compound-1) were determined in male and female Sprague Dawley rats (body weight: 200-250 g) treated for 1 month and/or three months by oral gavage of alizarin at a once daily dose of 100 mg/kg, 50 mg/kg, 25 mg/kg and 12.5 mg/kg. Serum proteins were removed by acetonitrile precipitation, and alizarin was extracted by chloroform before separation on an HPLC-C18 column (Poroshell 120 EC-C18, 3.0×50 mm, Agilent) with an HPLC system (Agilent 1100 Series) and detection at OD245 nm. For quantitative determination of Compound-7 and Compound-10F in rat and dog serum, serum proteins were also removed by acetonitrile precipitation before HPLC analysis as detailed above and detection at OD254 nm.

Salmonella strain TA2637 = details: cited from earlier work
[3] = test system: hippocampal neuronal cell bodies (NeuN); assay: Hippocampal neuronal loss in Tg2576 mice subjected to CUMS, binding assay with [125I]-labeled anti-NeuN antibody; type: in vivo; details: 15 months-old Tg2576 mice, 3 months of CUMS, treated during CUMS; compounds 10 mg/kg/d
Tomm6 = molecular target: T1, Tomm6 (Mus musculus, UniProt Q9CQN3); assay: Immunoblot detection of hippocampal Tomm6 protein in treated Tg2576 mice; type: in vivo; details: aged Tg2576 mice treated for 6 months
T1 construct: hippocampi were isolated from 5-10 aged Tg2576 mice, pulverized under liquid nitrogen and solubilized; from tissue; host or cells: hippocampus of Tg2576 mice
T1 sequence (Q9CQN3 1-74): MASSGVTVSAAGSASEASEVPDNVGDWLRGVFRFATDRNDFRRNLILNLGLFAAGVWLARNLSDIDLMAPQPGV

O=C1c2ccccc2C(=O)c2c1ccc(O)c2O [Compound-1, 1,2-dihydroxyanthraquinone]
response of treated warts (HPV-induced warts): showed a response
adverse effects (safety and tolerability) (HPV-induced warts; 6 participants): no adverse effects
lesions with complete response (100% decrease of the lesion area) (HPV-induced warts; 94 lesions): more than 86%
lesions with partial response (>50%-<100% decrease of lesion area) (HPV-induced warts; 94 lesions): 13.8%
aggregation of the AT2 receptor [1]: inhibited the aggregation of the AT2 receptor
oral bioavailability / serum concentrations after oral intake ([2]; rats): achieves therapeutic serum concentrations
oral doses required to achieve equivalent peak serum concentrations, higher in rats compared to dogs ([2]; rats vs dogs): approximately 10 fold
mutagenicity in the Ames test (Salmonella strain TA2637): could be mutagenic
hippocampal neuronal loss [3]: prevented
hippocampal protein content of Tomm6 (Tomm6): substantially increased
